Experimental findings from ChEMBL document CHEMBL1129810, “Eicosanoid biosynthesis: differential inhibition of cytochrome P450 epoxygenase and -hydroxylase” (Bioorg Med Chem Lett, 1997) are described below.

The IC50 is the point on the concentration scale where inhibition reaches its midpoint. Lower therefore signals inhibition by little substance.

The assay deals with T1, Cytochrome P450 2C23 (Rattus norvegicus, UniProt P24470).
T1 sequence (P24470 whole entry): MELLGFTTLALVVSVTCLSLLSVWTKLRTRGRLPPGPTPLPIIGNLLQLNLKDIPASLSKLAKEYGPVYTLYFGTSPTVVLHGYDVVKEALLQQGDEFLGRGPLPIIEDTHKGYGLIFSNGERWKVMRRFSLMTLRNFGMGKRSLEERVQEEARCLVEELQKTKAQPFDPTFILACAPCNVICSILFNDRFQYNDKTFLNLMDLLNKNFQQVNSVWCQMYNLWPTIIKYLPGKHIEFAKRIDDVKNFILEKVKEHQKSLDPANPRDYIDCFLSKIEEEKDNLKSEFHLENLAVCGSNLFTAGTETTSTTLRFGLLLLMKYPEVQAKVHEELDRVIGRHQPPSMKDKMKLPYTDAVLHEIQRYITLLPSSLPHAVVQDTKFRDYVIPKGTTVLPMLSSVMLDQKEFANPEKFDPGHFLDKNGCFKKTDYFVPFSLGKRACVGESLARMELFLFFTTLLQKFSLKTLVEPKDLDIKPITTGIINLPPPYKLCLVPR
Briefly: Inhibition of Cytochrome P450 epoxygenase in rat kidney microsomes. Format: ADME.
The compound `C#CC#CC(O)CCc1ccccc1-c1ccccc1CO` (stereo not drawn) came in with an IC50 of 5 µM.

For `COC(=O)CCCCCCCC=C(Br)Br`, the IC50 turned out to be 6 µM.

In the case of `CS(=O)(=O)NC(=O)CCCCCCCC=C(Br)Br`, the IC50 turned out to be 6 µM.
